Data as given in patent publication US6492371B2, “Use of cyclic GMP-specific phosphodiesterase inhibitors for treatment of Parkinson's Disease” (priority 2000, dated 2002).
Counter-ions that a name gives are not always drawn.

Tests used:
[1] = tested on: anti-parkinson action of bromocriptine; conditions: patients with PD, concomitant caffeine and bromocriptine; cited from earlier work
[2] = oral, monotherapy; rapid peripheral metabolism by dopa decarboxylase and COMT; cited from earlier work
Parkinson's symptoms = experiment: Administration of a PDE5 inhibitor compound to a patient suffering from Parkinson's Disease; assay type: in vivo, human; conditions: one patient with PD administered the PDE5 inhibitor
Text: The PDE5 inhibitor was 5-(2-ethoxy-5-(4-methyl-1-piperazinylsulphonyl)phenyl)-1-methyl-3-n-propyl-1,6-dihydro-7H-pyrazolo[4,3-d]pyrimidin-7-one, otherwise known as sildenafil citrate (Viagra®).

[3] = tested on: effectiveness of L-dopa and dopaminergic ergot derivatives in PD; conditions: therapy of PD, combination with L-dopa and lisuride; cited from earlier work

Cn1c(=O)c2c(ncn2C)n(C)c1=O [caffeine]
potentiation of the anti-parkinson action of bromocriptine [1]: failed to potentiate the anti-parkinson action of bromocriptine

N[C@@H](Cc1ccc(O)c(O)c1)C(=O)O [L-dopa]
fraction of orally administered L-dopa that penetrates into brain [2]: Less than 1%

CCCc1nn(C)c2c(=O)[nH]c(-c3cc(S(=O)(=O)N4CCN(C)CC4)ccc3OCC)nc12 [sildenafil citrate, 5-(2-ethoxy-5-(4-methyl-1-piperazinylsulphonyl)phenyl)-1-methyl-3-n-propyl-1,6-dihydro-7H-pyrazolo[4,3-d]pyrimidin-7-one]
effect on Parkinson's symptoms noted by the patient (Parkinson's symptoms): an improvement in their Parkinson's symptoms

COc1ccc(C2CNC(=O)C2)cc1OC1CCCC1 (stereo not shown) [Rolipram, rolipram]
potentiation of the effect of L-dopa and lisuride [3]: failed to potentiate the effect of L-dopa and lisuride
